Results on 15 compounds are retold here after patent EP4596537A1, “NOVEL FLUORENE DERIVATIVE COMPOUND AND USE THEREOF” (JD Bioscience Inc., priority 2022, dated 2024).

One assay relates to PDHE1α S293. The experiment in a line: In vitro PDH S293 phosphorylation inhibition (Western blot) in HEK293 cells. The class given is cell-based, human. The conditions noted are these: 5 hours, at 1 µM. Here is the method:
HEK293 cells, which are human embryonic kidney cells, were seeded at a density of 2 × 10^6 in a 60 mm dish, and cultured for 24 hours. After replacing the medium with a medium comprising 0.5% FBS, the compounds prepared according to Examples 1 to 54 were treated at various concentrations. 5 hours later, the cells were scraped off and collected into a 15 mL conical tube and centrifuged at 1500 rpm for 10 minutes. The supernatant was discarded, the resultant was washed with 1× PBS, and transferred to a 1.5 mL e-tube, followed by centrifugation at 10,000 rpm for 5 minutes. The supernatant was discarded again, a lysis buffer was added, and the cells were lysed on ice for 30 minutes. The cells were vortexed every 10 minutes to completely lyse, and centrifuged again at 10,000 rpm for 15 minutes at 4°C, and the supernatant was collected. The protein in the supernatant was quantified using BCA technique, and the sample buffer was added to 20 µg of protein and allowed to react at 70°C for 5 minutes. The expression of PDHE1α S232, S293, S300, and total PDHE1α proteins was detected by Western blot, and the resulting PDH S293 phosphorylation inhibition is shown in Table 6. […]
Regarding “N'-(3-chloro-5-(trifluoromethyl)pyridin-2-yl)-2-(4-(2-fluoro-9-hydroxy-9-(trifluoromethyl)-9H-fluoren-4-yl)-1H-pyrazol-1-yl)propanehydrazide [Example 32]”, the “PDH S293 phosphorylation inhibition” value is listed as “++ (50% or more of PHDE1α S293 expression inhibition rate at 1 µM)”. “N'-(3-chloro-5-(trifluoromethyl)pyridin-2-yl)-2-(4-(9-hydroxy-2-methoxy-9-(trifluoromethyl)-9H-fluoren-4-yl)-1H-pyrazol-1-yl)propanehydrazide [Example 33]”: the “PDH S293 phosphorylation inhibition” value is given as “++ (50% or more of PHDE1α S293 expression inhibition rate at 1 µM)”.

The assay is the same for the next values; noted with them: Homo sapiens, 5 hours.
For orientation: inhibition means the drop in the measured response relative to a control, in per cent. Lower therefore signals little suppression. Turning to `CC(C(=O)NNc1nc2ccccc2s1)n1cc(-c2cc(F)cc3c2-c2ccccc2C3(O)C(F)(F)F)cn1` (stereo not drawn) [Example 42, N'-(benzo[d]thiazol-2-yl)-2-(4-(2-fluoro-9-hydroxy-9-(trifluoromethyl)-9H-fluoren-4-yl)-1H-pyrazol-1-yl)propanehydrazide], the inhibition at 1 µM is at least 50%. `CCC(C(=O)NNc1ccc(F)cc1)n1cc(-c2cc(F)cc3c2-c2ccccc2C3(O)C(F)(F)F)cn1` (stereo not drawn) [Example 43, 2-(4-(2-fluoro-9-hydroxy-9-(trifluoromethyl)-9H-fluoren-4-yl)-1H-pyrazol-1-yl)-N'-(4-fluorophenyl)butanehydrazide] returned an inhibition at 1 µM of at least 50%. The compound `CC(C)C(C(=O)NNc1ccc(F)cc1)n1cc(-c2cc(F)cc3c2-c2ccccc2C3(O)C(F)(F)F)cn1` (stereo not drawn) [Example 44, 2-(4-(2-fluoro-9-hydroxy-9-(trifluoromethyl)-9H-fluoren-4-yl)-1H-pyrazol-1-yl)-N'-(4-fluorophenyl)-3-methylbutanehydrazide] yielded an inhibition at 1 µM of at least 50%. In turn, `CC(C)CC(C(=O)NNc1ccc(F)cc1)n1cc(-c2cc(F)cc3c2-c2ccccc2C3(O)C(F)(F)F)cn1` (stereo not drawn) [Example 45, 2-(4-(2-fluoro-9-hydroxy-9-(trifluoromethyl)-9H-fluoren-4-yl)-1H-pyrazol-1-yl)-N'-(4-fluorophenyl)-4-methylpentanehydrazide] returned an inhibition at 1 µM of at least 50%. On the same count and under the same terms, the same measure for `O=C(NNc1ccc(F)cc1)C(CC1CCCCC1)n1cc(-c2cc(F)cc3c2-c2ccccc2C3(O)C(F)(F)F)cn1` (stereo not drawn) [Example 46, 3-cyclohexyl-2-(4-(2-fluoro-9-hydroxy-9-(trifluoromethyl)-9H-fluoren-4-yl)-1H-pyrazol-1-yl)-N'-(4-fluorophenyl)propanehydrazide]: at least 50%; for `CC(C)(C(=O)NNc1ccc(F)cc1)n1cc(-c2cc(F)cc3c2-c2ccccc2C3(O)C(F)(F)F)cn1` (stereo not drawn) [Example 47, 2-(4-(2-fluoro-9-hydroxy-9-(trifluoromethyl)-9H-fluoren-4-yl)-1H-pyrazol-1-yl)-N'-(4-fluorophenyl)-2-methylpropanehydrazide]: at least 50%. `C[C@@H](C(=O)NNc1ccc(F)cc1)n1cc(-c2cc(F)cc3c2-c2ccccc2[C@@]3(O)C(F)(F)F)cn1` [Example 48, (S)-2-(4-((S)-2-fluoro-9-hydroxy-9-(trifluoromethyl)-9H-fluoren-4-yl)-1H-pyrazol-1-yl)-N'-(4-fluorophenyl)propanehydrazide] yielded an inhibition at 1 µM of at least 50%.

Compound `C[C@H](C(=O)NNc1ccc(F)cc1)n1cc(-c2cc(F)cc3c2-c2ccccc2[C@]3(O)C(F)(F)F)cn1` [Example 49, (R)-2-(4-((R)-2-fluoro-9-hydroxy-9-(trifluoromethyl)-9H-fluoren-4-yl)-1H-pyrazol-1-yl)-N'-(4-fluorophenyl)propanehydrazide] had an inhibition at 1 µM of at least 50%. Still for that read-out and setting: the figure for `C[C@@H](C(=O)NNc1ccc(F)cc1)n1cc(-c2cc(F)cc3c2-c2ccccc2[C@]3(O)C(F)(F)F)cn1` [Example 50, (S)-2-(4-((R)-2-fluoro-9-hydroxy-9-(trifluoromethyl)-9H-fluoren-4-yl)-1H-pyrazol-1-yl)-N'-(4-fluorophenyl)propanehydrazide] is at least 50%. `C[C@H](C(=O)NNc1ccc(F)cc1)n1cc(-c2cc(F)cc3c2-c2ccccc2[C@@]3(O)C(F)(F)F)cn1` [Example 51, (R)-2-(4-((S)-2-fluoro-9-hydroxy-9-(trifluoromethyl)-9H-fluoren-4-yl)-1H-pyrazol-1-yl)-N'-(4-fluorophenyl)propanehydrazide] displayed an inhibition at 1 µM of at least 50%.

In turn, `COc1cc(-c2cnn(C(C)C(=O)NN3CCCCC3)c2)c2c(c1)C(O)(C(F)(F)F)c1ccccc1-2` (stereo not drawn) [Example 52, 2-(4-(9-hydroxy-2-methoxy-9-(trifluoromethyl)-9H-fluoren-4-yl)-1H-pyrazol-1-yl)-N-(piperidin-1-yl)propanamide] had an inhibition at 1 µM of at least 50%.

For `CC(C(=O)NN1CCCCC1)n1cc(-c2cc(F)cc3c2-c2ccccc2C3(O)C(F)(F)F)cn1` (stereo not drawn) [Example 53, 2-(4-(2-fluoro-9-hydroxy-9-(trifluoromethyl)-9H-fluoren-4-yl)-1H-pyrazol-1-yl)-N-(piperidin-1-yl)propanamide], the inhibition at 1 µM is at least 50%. For `CC(C(=O)NN1CCCCCC1)n1cc(-c2cc(F)cc3c2-c2ccccc2C3(O)C(F)(F)F)cn1` (stereo not drawn) [Example 54, N-(azepan-1-yl)-2-(4-(2-fluoro-9-hydroxy-9-(trifluoromethyl)-9H-fluoren-4-yl)-1H-pyrazol-1-yl)propanamide], the inhibition at 1 µM was at least 50%.
